Experimental data from publication PMC11071649, “Synthesis and Selective Anticancer Activity Evaluation of 2-phenylacrylonitrile Derivatives as Tubulin Inhibitors” (Current Medicinal Chemistry, 2024).

How the values were obtained:
Assay type in all cases: cell-based, human
A549 lung cancer cell = assay: MTT anti-proliferative assay, A549; details: for IC50: MTT, 48 h
Procedure: (§1) The anti-proliferation activities of the synthesized analogs were assessed by an in vitro MTT assay conducted on thirteen human cell lines. Their cytotoxic activities were evaluated by measuring the inhibition of net cell growth. […]
(§2) 1.6. Cell lines and cell culture
(§3) MTT was purchased from Sigma-Aldrich Co. (St. Louis, MO, USA). The PI and Annexin V-FITC apoptosis detection kit were purchased from Invitrogen (Eugene, OR, USA). All human cell lines were used in this study. […]
(§4) cell, MCF-7 breast cancer cell, MCF-10A normal breast cell, Raji B lymphoblastoid cell and diffuse large B-cell lymphoma SU-DHL-10 cell were initially purchased from American Type Culture Collection (ATCC, Manassas, Virginia). media, DMEM, and FBS were provided from Gibco Company.
(§5) 1.7. Cell growth inhibition assay (MTT assay)
(§6) The experiment was carried out according to the method of reference. Briefly, cells were plated in 96-well plates at a den- […]
(§7) the anti-proliferative activities were determined by MTT assay. […]
(§8) (Becton-Dickinson, Franklin Lakes, NJ). […]

AGS gastric cancer cell = assay: MTT anti-proliferative assay, AGS; details: for IC50: MTT, 48 h
Procedure: as §1, §2, §3, §4, §5, §6, §7, §8

[1] = system: BEL-7402 liver cancer cell; assay: MTT anti-proliferative assay, BEL-7402; details: for IC50: MTT, 48 h
Procedure: as §1, §2, §3, §4, §5, §6, §7, §8

[2] = system: HCT116 colectal cancer cell; assay: MTT anti-proliferative assay, HCT116; details: for IC50: MTT, 48 h, read-out: IC50 HCT-116
Procedure: as §1, §2, §3, §4, §5, §6, §7, §8

[3] = system: HeLa cervical cancer cell; assay: MTT anti-proliferative assay, HeLa; details: MTT, 48 h
Procedure: as §1, §2, §3, §4, §5, §6, §7, §8

HepG2 hepatoma cell = assay: MTT anti-proliferative assay, HepG2; details: for IC50: MTT, 48 h, read-out: IC50 HepG-2
Procedure: as §1, §2, §3, §4, §5, §6, §7, §8

L-02 normal liver cell = assay: MTT assay, L-02 normal cells; details: 48 h
Procedure: as §1, §2, §3, §4, §5, §6, §7, §8

[4] = system: MGC-803 late stage differentiation gastric cancer cell; assay: MTT anti-proliferative assay, MGC-803; details: for IC50: MTT, 48 h
Procedure: as §1, §2, §3, §4, §5, §6, §7, §8

MCF-7 breast cancer cell = assay: MTT anti-proliferative assay, MCF-7; details: MTT, 48 h
Procedure: as §1, §2, §3, §4, §5, §6, §7, §8

[5] = system: MCF-10A normal breast cell; assay: MTT assay, MCF-10A normal cells; details: 48 h
Procedure: as §1, §2, §3, §4, §5, §6, §7, §8

[6] = system: Raji B lymphoblastoid cell; assay: MTT anti-proliferative assay, Raji; details: for IC50: MTT, 48 h, read-out: IC50 Raji
Procedure: as §1, §2, §3, §4, §5, §6, §7, §8

[7] = system: SGC-7901 early differentiation gastric cancer cell; assay: MTT anti-proliferative assay, SGC-7901; details: for IC50: MTT, 48 h
Procedure: as §1, §2, §3, §4, §5, §6, §7, §8

[8] = system: diffuse large B-cell lymphoma SU-DHL-10 cell; assay: MTT anti-proliferative assay, SU-DHL-10; details: for IC50: MTT, 48 h, read-out: IC50 SU-DHL-10
Procedure: as §1, §2, §3, §4, §5, §6, §7, §8

Row | Structure (SMILES) | IC50 (A549 lung cancer cell) | IC50 (AGS gastric cancer cell) | IC50 [1] | IC50 [2] | IC50 [3] | IC50 (HepG2 hepatoma cell) | IC50 (L-02 normal liver cell) | IC50 [4] | IC50 (MCF-7 breast cancer cell) | IC50 [5] | IC50 [6] | IC50 [7] | IC50 [8] | SI (selectivity index), IC50 (L-02)/IC50 (AGS) (AGS gastric cancer cell) | SI (selectivity index), IC50 (L-02)/IC50 (MGC-803) [4] | SI (selectivity index), IC50 (L-02)/IC50 (SGC-7901) [7] | also measured
1 | CCCCOc1ccc(/C=C(\C#N)c2ccc(OC(F)(F)F)cc2)cc1 [Compound 1a2n] | > 100 µM | > 100 µM | > 100 µM | > 100 µM | > 100 µM | > 100 µM | > 100 µM | > 100 µM | > 100 µM | > 100 µM | > 100 µM | > 100 µM | > 100 µM | – | – | – | –
2 | CCCCCOc1ccc(/C=C(\C#N)c2ccc(OC(F)(F)F)cc2)cc1 [Compound 1a2o] | > 100 µM | > 100 µM | > 100 µM | > 100 µM | > 100 µM | > 100 µM | > 100 µM | > 100 µM | > 100 µM | > 100 µM | > 100 µM | > 100 µM | > 100 µM | – | – | – | –
3 | CCCCCCOc1ccc(/C=C(\C#N)c2ccc(OC(F)(F)F)cc2)cc1 [Compound 1a2p] | > 100 µM | > 100 µM | > 100 µM | > 100 µM | > 100 µM | > 100 µM | > 100 µM | > 100 µM | > 100 µM | > 100 µM | > 100 µM | > 100 µM | > 100 µM | – | – | – | –
4 | Cc1cccc(/C=C(\C#N)c2ccc(OC(F)(F)F)cc2)c1 [Compound 1a2q] | > 100 µM | > 100 µM | > 100 µM | > 100 µM | > 100 µM | > 100 µM | > 100 µM | > 100 µM | > 100 µM | > 100 µM | > 100 µM | > 100 µM | > 100 µM | – | – | – | –
5 | Cc1cc(C)c(/C=C(\C#N)c2ccc(OC(F)(F)F)cc2)c(C)c1 [Compound 1a2r] | > 100 µM | > 100 µM | > 100 µM | > 100 µM | > 100 µM | > 100 µM | > 100 µM | > 100 µM | > 100 µM | > 100 µM | > 100 µM | > 100 µM | > 100 µM | – | – | – | –
6 | N#C/C(=C\c1ccc(N2CCOCC2)cc1)c1ccc(OC(F)(F)F)cc1 [Compound 1a2s] | > 100 µM | > 100 µM | > 100 µM | > 100 µM | > 100 µM | > 100 µM | > 100 µM | > 100 µM | > 100 µM | > 100 µM | > 100 µM | > 100 µM | > 100 µM | – | – | – | –
7 | N#C/C(=C\c1ccc(N2CCCC2)cc1)c1ccc(OC(F)(F)F)cc1 [Compound 1a2t] | > 100 µM | 89.8 ± 1 µM | > 100 µM | 30.8 ± 2.9 µM | > 100 µM | > 100 µM | > 100 µM | 41.5 ± 2.1 µM | > 100 µM | > 100 µM | > 100 µM | 57.2 ± 14.3 µM | > 100 µM | > 1.1 | > 2.4 | > 1.7 | SI (selectivity index), IC50 (L-02)/IC50 (HCT-116) [2]: > 3.2
8 | N#C/C(=C\c1ccc(N2CCCCC2)cc1)c1ccc(OC(F)(F)F)cc1 [Compound 1a2u] | > 100 µM | > 100 µM | > 100 µM | > 100 µM | > 100 µM | > 100 µM | > 100 µM | > 100 µM | > 100 µM | > 100 µM | > 100 µM | > 100 µM | > 100 µM | – | – | – | –
9 | N#C/C(=C\c1ccco1)c1ccc(OC(F)(F)F)cc1 [Compound 1a3a] | > 100 µM | > 100 µM | > 100 µM | > 100 µM | > 100 µM | > 100 µM | > 100 µM | > 100 µM | > 100 µM | > 100 µM | > 100 µM | > 100 µM | > 100 µM | – | – | – | –
10 | N#C/C(=C\c1cccs1)c1ccc(OC(F)(F)F)cc1 [Compound 1a3b] | > 100 µM | 89.8 ± 1 µM | > 100 µM | 30.8 ± 2.9 µM | > 100 µM | > 100 µM | > 100 µM | 41.5 ± 2.1 µM | > 100 µM | > 100 µM | > 100 µM | 57.2 ± 14.3 µM | > 100 µM | > 2.3 | > 1.7 | > 1.7 | SI (selectivity index), IC50 (L-02)/IC50 (A549) (A549 lung cancer cell): > 1.1; SI (selectivity index), IC50 (L-02)/IC50 (HCT-116) [2]: > 1.8; SI (selectivity index), IC50 (L-02)/IC50 (HepG-2) (HepG2 hepatoma cell): > 1.6
11 | N#C/C(=C\c1cccc2ccccc12)c1ccc(OC(F)(F)F)cc1 [Compound 1a3c] | > 100 µM | > 100 µM | > 100 µM | > 100 µM | > 100 µM | > 100 µM | > 100 µM | > 100 µM | > 100 µM | > 100 µM | > 100 µM | > 100 µM | > 100 µM | – | – | – | –
12 | N#C/C(=C\c1ccccc1)c1cccc(OC(F)(F)F)c1 [Compound 1b2a] | > 100 µM | > 100 µM | > 100 µM | > 100 µM | > 100 µM | > 100 µM | > 100 µM | > 100 µM | > 100 µM | > 100 µM | > 100 µM | > 100 µM | > 100 µM | – | – | – | –
13 | N#C/C(=C\c1ccc(F)cc1)c1cccc(OC(F)(F)F)c1 [Compound 1b2b] | > 100 µM | 8.2 ± 2.6 µM | 3 ± 1 µM | 1.1 ± 0.3 µM | > 100 µM | 15.9 ± 5.2 µM | 16.1 ± 1 µM | 1.2 ± 0.6 µM | > 100 µM | 11.3 ± 2.3 µM | 17 ± 4.3 µM | 5.4 ± 0.2 µM | 60.4 ± 0.7 µM | > 1.9 | > 13.1 | > 2.9 | SI (selectivity index), IC50 (L-02)/IC50 (BEL-7402) [1]: > 5.2; SI (selectivity index), IC50 (L-02)/IC50 (HCT-116) [2]: > 14.5; SI (selectivity index), IC50 (L-02)/IC50 (HepG-2) (HepG2 hepatoma cell): > 1.0
14 | N#C/C(=C\c1ccc(Cl)cc1)c1cccc(OC(F)(F)F)c1 [Compound 1b2c] | > 100 µM | > 100 µM | > 100 µM | > 100 µM | > 100 µM | > 100 µM | > 100 µM | > 100 µM | > 100 µM | > 100 µM | > 100 µM | > 100 µM | > 100 µM | – | – | – | –
15 | N#C/C(=C\c1ccc(Br)cc1)c1cccc(OC(F)(F)F)c1 [Compound 1b2d] | > 100 µM | 13.9 ± 4.2 µM | 14.6 ± 4.6 µM | 15.1 ± 2.9 µM | 66.8 ± 9.8 µM | 34.9 ± 3.2 µM | 50.4 ± 0.8 µM | 10.1 ± 0.9 µM | > 100 µM | 34.1 ± 3.6 µM | 16.3 ± 6.1 µM | 21.9 ± 3.3 µM | 35.6 ± 0.9 µM | > 3.5 | > 4.9 | > 2.3 | SI (selectivity index), IC50 (L-02)/IC50 (BEL-7402) [1]: > 3.4; SI (selectivity index), IC50 (L-02)/IC50 (HepG-2) (HepG2 hepatoma cell): > 1.4; SI (selectivity index), IC50 (L-02)/IC50 (Raji) [6]: > 3.0; SI (selectivity index), IC50 (L-02)/IC50 (SU-DHL-10) [8]: > 1.4
16 | Cc1ccc(/C=C(\C#N)c2cccc(OC(F)(F)F)c2)cc1 [Compound 1b2e] | > 100 µM | 4.5 ± 2 µM | 39.4 ± 6.1 µM | 25 ± 0.5 µM | 61.7 ± 3.3 µM | 38.2 ± 0.1 µM | 54.2 ± 12.3 µM | 11.1 ± 0.3 µM | > 100 µM | > 100 µM | 43.1 ± 4.5 µM | 8.1 ± 2.9 µM | 29.3 ± 2 µM | > 11.9 | > 4.8 | > 6.6 | SI (selectivity index), IC50 (L-02)/IC50 (BEL-7402) [1]: > 1.3; SI (selectivity index), IC50 (L-02)/IC50 (HCT-116) [2]: > 2.1; SI (selectivity index), IC50 (L-02)/IC50 (HepG-2) (HepG2 hepatoma cell): > 1.4; SI (selectivity index), IC50 (L-02)/IC50 (Raji) [6]: > 1.2; SI (selectivity index), IC50 (L-02)/IC50 (SU-DHL-10) [8]: > 1.8
